Measurements reported in PubChem BioAssay (NCI).
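Interpolation was linear, between the two tested concentrations surrounding the appropriate level; five concentrations were tested over 48 hours in 96-well plates. Definition used: TGI = concentration required for complete inhibition of growth.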 Where a SMILES comes first, the peptide text is derived from it. The star is where a group is joined. Boc = CC(C)(C)OC(=O)*; OBn = c1ccc(CO*)cc1

Each compound was assayed on HCC-2998 colon (assay: NCI-60 cell line screen, 48 h).

SMILES | TGI [µM]
COc1cc(/C=C(\C#N)c2nc3ccccc3o2)ccc1O | 41.9
COc1ccc2cc(CNCCCCCCCCCCCCNCc3ccc4cc(OC)ccc4c3)ccc2c1 | 39.1
COC(=O)c1c(O)ccc2c1c1c(n2Cc2ccccc2)C(=O)c2ccccc2C1=O | 17.9
Cc1csc2nc3c(cnn3C)c(=S)n12 | > 100
Cc1cc(C)nc(NS(=O)(=O)c2ccc(NNc3c4ccccc4nc4c(C(=O)Nc5ccc(S(=O)(=O)Nc6ncccn6)cc5)cccc34)cc2)n1 | 51.2
COCC(N=CN1CCCc2ccccc2[C@@H]1CCCCl)C(C)(C)C (stereo not given in full) | 33.9
CNc1c2cccc(C)c2nc2c(C(=O)NCCN(C)C)cccc12 | 0.192
O=C1CC(NC(=O)C(F)(F)F)c2c1csc2Br (stereo not given) | > 100
CCC(Sc1cc(Cl)c(C)cc1S(=O)(=O)Nc1nc(N)nc(N(C)C)n1)C(=O)O (stereo not given) | > 10
O=C(N/N=C/c1ccc2c(c1)OCO2)Nc1ccccc1Cl | 5.14
C[C@]12C[C@H](c3ccccc3)Nc3ccccc3N1C(c1ccccc1)=NO2 | > 100
O=c1c(C=Nc2ccccc2Cl)c(O)n(-c2ccccc2)c(=O)n1-c1ccccc1 | > 100
CCOC(=O)NNC(=O)C1CSC(c2ccccc2)N1C(C)=O (stereo not given) | > 100
Cc1ccc2nc(CN3CCCC(O)C3)cc(=O)n2c1 (stereo not given) | > 100
CCOC(=O)C(SCCO)C(C(=O)OCC)n1cnc2c(N)ncnc21 (stereo not given) | 30.4
COc1ccc2nc3c([N+](=O)[O-])ccc4c3c(c2c1)N=CN4CCCN(C)C | 6.54
CC(C)C(NC(=O)C(Cc1ccccc1)NC(=O)OC(C)(C)C)C(=O)NCC(=O)OCc1ccccc1 (stereo not drawn) (Boc-Phe-Val-Gly-OBn; configuration not given here) | 31.9

Each compound was assayed on RPMI-8226 leukemia (assay: NCI-60 cell line screen, 48 h).

SMILES | TGI [µM]
CCOC(=O)C1=CN/C(=C(/C)C(=O)OC)SC1C(=O)OCC (stereo not given) | > 100
Cc1ccc2c(c1)C(=O)/C(=N/Nc1ccc(Cl)cc1)CCO2 | > 100
COc1cc(C2SCC(=O)N2c2ccccc2Cl)cc(OC)c1OC (stereo not given) | > 100
CN(C)c1ccc(/C=N\NC(=O)c2ccccc2Nc2ccccc2C(=O)N/N=C/c2ccc(N(C)C)cc2)cc1 | > 100
C=C1C(=O)OC2/C=C(\CO)C3OC3C3OC3(C)CC(OC(=O)/C(=C/C)CO)C12 (stereo not given) | 45.7
COc1cc(/C=C(\C#N)c2nc3ccccc3o2)ccc1O | 63.6
COc1ccc2cc(CNCCCCCCCCCCCCNCc3ccc4cc(OC)ccc4c3)ccc2c1 | 42.6
COC(=O)c1c(O)ccc2c1c1c(n2Cc2ccccc2)C(=O)c2ccccc2C1=O | 29.2
Cc1csc2nc3c(cnn3C)c(=S)n12 | > 100
Cc1cc(C)nc(NS(=O)(=O)c2ccc(NNc3c4ccccc4nc4c(C(=O)Nc5ccc(S(=O)(=O)Nc6ncccn6)cc5)cccc34)cc2)n1 | 76.8
COCC(N=CN1CCCc2ccccc2[C@@H]1CCCCl)C(C)(C)C (stereo not given in full) | 8.95
CNc1c2cccc(C)c2nc2c(C(=O)NCCN(C)C)cccc12 | 0.57
O=C1CC(NC(=O)C(F)(F)F)c2c1csc2Br (stereo not given) | > 100
CCC(Sc1cc(Cl)c(C)cc1S(=O)(=O)Nc1nc(N)nc(N(C)C)n1)C(=O)O (stereo not given) | > 10
O=C(N/N=C/c1ccc2c(c1)OCO2)Nc1ccccc1Cl | > 56.2
C[C@]12C[C@H](c3ccccc3)Nc3ccccc3N1C(c1ccccc1)=NO2 | > 100
O=c1c(C=Nc2ccccc2Cl)c(O)n(-c2ccccc2)c(=O)n1-c1ccccc1 | > 100
CCOC(=O)NNC(=O)C1CSC(c2ccccc2)N1C(C)=O (stereo not given) | > 100
Cc1ccc2nc(CN3CCCC(O)C3)cc(=O)n2c1 (stereo not given) | > 100
CCOC(=O)C(SCCO)C(C(=O)OCC)n1cnc2c(N)ncnc21 (stereo not given) | 23.5
COc1ccc2nc3c([N+](=O)[O-])ccc4c3c(c2c1)N=CN4CCCN(C)C | 0.772
CC(C)C(NC(=O)C(Cc1ccccc1)NC(=O)OC(C)(C)C)C(=O)NCC(=O)OCc1ccccc1 (stereo not drawn) (Boc-Phe-Val-Gly-OBn; configuration not given here) | 42.5

What follows are compounds tested on NCI/ADR-RES ovarian (assay: NCI-60 cell line screen, 48 h).

SMILES | TGI [µM]
CCOC(=O)C1=CN/C(=C(/C)C(=O)OC)SC1C(=O)OCC (stereo not given) | > 100
Cc1ccc2c(c1)C(=O)/C(=N/Nc1ccc(Cl)cc1)CCO2 | > 100
COc1cc(C2SCC(=O)N2c2ccccc2Cl)cc(OC)c1OC (stereo not given) | > 100
CN(C)c1ccc(/C=N\NC(=O)c2ccccc2Nc2ccccc2C(=O)N/N=C/c2ccc(N(C)C)cc2)cc1 | > 100
C=C1C(=O)OC2/C=C(\CO)C3OC3C3OC3(C)CC(OC(=O)/C(=C/C)CO)C12 (stereo not given) | > 100
COc1cc(/C=C(\C#N)c2nc3ccccc3o2)ccc1O | 64.3
COc1ccc2cc(CNCCCCCCCCCCCCNCc3ccc4cc(OC)ccc4c3)ccc2c1 | 43
COC(=O)c1c(O)ccc2c1c1c(n2Cc2ccccc2)C(=O)c2ccccc2C1=O | 28.8
Cc1csc2nc3c(cnn3C)c(=S)n12 | > 100
Cc1cc(C)nc(NS(=O)(=O)c2ccc(NNc3c4ccccc4nc4c(C(=O)Nc5ccc(S(=O)(=O)Nc6ncccn6)cc5)cccc34)cc2)n1 | > 100
COCC(N=CN1CCCc2ccccc2[C@@H]1CCCCl)C(C)(C)C (stereo not given in full) | 3.19
CNc1c2cccc(C)c2nc2c(C(=O)NCCN(C)C)cccc12 | 1.83
O=C1CC(NC(=O)C(F)(F)F)c2c1csc2Br (stereo not given) | > 100
CCC(Sc1cc(Cl)c(C)cc1S(=O)(=O)Nc1nc(N)nc(N(C)C)n1)C(=O)O (stereo not given) | > 10
O=C(N/N=C/c1ccc2c(c1)OCO2)Nc1ccccc1Cl | 2.4
C[C@]12C[C@H](c3ccccc3)Nc3ccccc3N1C(c1ccccc1)=NO2 | > 100
O=c1c(C=Nc2ccccc2Cl)c(O)n(-c2ccccc2)c(=O)n1-c1ccccc1 | > 100
CCOC(=O)NNC(=O)C1CSC(c2ccccc2)N1C(C)=O (stereo not given) | > 100
Cc1ccc2nc(CN3CCCC(O)C3)cc(=O)n2c1 (stereo not given) | > 100
CCOC(=O)C(SCCO)C(C(=O)OCC)n1cnc2c(N)ncnc21 (stereo not given) | 56.7
COc1ccc2nc3c([N+](=O)[O-])ccc4c3c(c2c1)N=CN4CCCN(C)C | 18
CC(C)C(NC(=O)C(Cc1ccccc1)NC(=O)OC(C)(C)C)C(=O)NCC(=O)OCc1ccccc1 (stereo not drawn) (Boc-Phe-Val-Gly-OBn; configuration not given here) | > 100

The compounds below were run on U251 CNS (assay: NCI-60 cell line screen, 48 h).

SMILES | TGI [µM]
CCOC(=O)C1=CN/C(=C(/C)C(=O)OC)SC1C(=O)OCC (stereo not given) | > 100
Cc1ccc2c(c1)C(=O)/C(=N/Nc1ccc(Cl)cc1)CCO2 | > 100
COc1cc(C2SCC(=O)N2c2ccccc2Cl)cc(OC)c1OC (stereo not given) | > 100
CN(C)c1ccc(/C=N\NC(=O)c2ccccc2Nc2ccccc2C(=O)N/N=C/c2ccc(N(C)C)cc2)cc1 | > 100
C=C1C(=O)OC2/C=C(\CO)C3OC3C3OC3(C)CC(OC(=O)/C(=C/C)CO)C12 (stereo not given) | > 100
COc1cc(/C=C(\C#N)c2nc3ccccc3o2)ccc1O | 36.2
COc1ccc2cc(CNCCCCCCCCCCCCNCc3ccc4cc(OC)ccc4c3)ccc2c1 | 43.8
COC(=O)c1c(O)ccc2c1c1c(n2Cc2ccccc2)C(=O)c2ccccc2C1=O | 29.2
Cc1csc2nc3c(cnn3C)c(=S)n12 | > 100
Cc1cc(C)nc(NS(=O)(=O)c2ccc(NNc3c4ccccc4nc4c(C(=O)Nc5ccc(S(=O)(=O)Nc6ncccn6)cc5)cccc34)cc2)n1 | 56
COCC(N=CN1CCCc2ccccc2[C@@H]1CCCCl)C(C)(C)C (stereo not given in full) | 34.8
CNc1c2cccc(C)c2nc2c(C(=O)NCCN(C)C)cccc12 | 0.651
O=C1CC(NC(=O)C(F)(F)F)c2c1csc2Br (stereo not given) | > 100
CCC(Sc1cc(Cl)c(C)cc1S(=O)(=O)Nc1nc(N)nc(N(C)C)n1)C(=O)O (stereo not given) | > 10
O=C(N/N=C/c1ccc2c(c1)OCO2)Nc1ccccc1Cl | > 100
C[C@]12C[C@H](c3ccccc3)Nc3ccccc3N1C(c1ccccc1)=NO2 | > 100
O=c1c(C=Nc2ccccc2Cl)c(O)n(-c2ccccc2)c(=O)n1-c1ccccc1 | > 100
CCOC(=O)NNC(=O)C1CSC(c2ccccc2)N1C(C)=O (stereo not given) | > 100
Cc1ccc2nc(CN3CCCC(O)C3)cc(=O)n2c1 (stereo not given) | > 100
CCOC(=O)C(SCCO)C(C(=O)OCC)n1cnc2c(N)ncnc21 (stereo not given) | 20.4
COc1ccc2nc3c([N+](=O)[O-])ccc4c3c(c2c1)N=CN4CCCN(C)C | 24.3
CC(C)C(NC(=O)C(Cc1ccccc1)NC(=O)OC(C)(C)C)C(=O)NCC(=O)OCc1ccccc1 (stereo not drawn) (Boc-Phe-Val-Gly-OBn; configuration not given here) | 32.2

What follows are compounds tested on SK-OV-3 ovarian (assay: NCI-60 cell line screen, 48 h).

SMILES | TGI [µM]
CCOC(=O)C1=CN/C(=C(/C)C(=O)OC)SC1C(=O)OCC (stereo not given) | > 100
Cc1ccc2c(c1)C(=O)/C(=N/Nc1ccc(Cl)cc1)CCO2 | > 100
COc1cc(C2SCC(=O)N2c2ccccc2Cl)cc(OC)c1OC (stereo not given) | > 100
CN(C)c1ccc(/C=N\NC(=O)c2ccccc2Nc2ccccc2C(=O)N/N=C/c2ccc(N(C)C)cc2)cc1 | > 100
C=C1C(=O)OC2/C=C(\CO)C3OC3C3OC3(C)CC(OC(=O)/C(=C/C)CO)C12 (stereo not given) | > 100
COc1cc(/C=C(\C#N)c2nc3ccccc3o2)ccc1O | 36.7
COc1ccc2cc(CNCCCCCCCCCCCCNCc3ccc4cc(OC)ccc4c3)ccc2c1 | 32.7
COC(=O)c1c(O)ccc2c1c1c(n2Cc2ccccc2)C(=O)c2ccccc2C1=O | 30.1
Cc1csc2nc3c(cnn3C)c(=S)n12 | > 100
Cc1cc(C)nc(NS(=O)(=O)c2ccc(NNc3c4ccccc4nc4c(C(=O)Nc5ccc(S(=O)(=O)Nc6ncccn6)cc5)cccc34)cc2)n1 | 89.9
COCC(N=CN1CCCc2ccccc2[C@@H]1CCCCl)C(C)(C)C (stereo not given in full) | 70.1
CNc1c2cccc(C)c2nc2c(C(=O)NCCN(C)C)cccc12 | 1.94
O=C1CC(NC(=O)C(F)(F)F)c2c1csc2Br (stereo not given) | > 100
CCC(Sc1cc(Cl)c(C)cc1S(=O)(=O)Nc1nc(N)nc(N(C)C)n1)C(=O)O (stereo not given) | > 10
O=C(N/N=C/c1ccc2c(c1)OCO2)Nc1ccccc1Cl | > 24.9
C[C@]12C[C@H](c3ccccc3)Nc3ccccc3N1C(c1ccccc1)=NO2 | > 100
O=c1c(C=Nc2ccccc2Cl)c(O)n(-c2ccccc2)c(=O)n1-c1ccccc1 | > 100
CCOC(=O)NNC(=O)C1CSC(c2ccccc2)N1C(C)=O (stereo not given) | > 100
Cc1ccc2nc(CN3CCCC(O)C3)cc(=O)n2c1 (stereo not given) | > 100
CCOC(=O)C(SCCO)C(C(=O)OCC)n1cnc2c(N)ncnc21 (stereo not given) | > 100
COc1ccc2nc3c([N+](=O)[O-])ccc4c3c(c2c1)N=CN4CCCN(C)C | 25.3
CC(C)C(NC(=O)C(Cc1ccccc1)NC(=O)OC(C)(C)C)C(=O)NCC(=O)OCc1ccccc1 (stereo not drawn) (Boc-Phe-Val-Gly-OBn; configuration not given here) | 28
